From US10662203B2, “Pyrido[2,3-b]indole compounds for the treatment and prophylaxis of bacterial infection” (Hoffmann-La Roche Inc., priority 2017, dated 2020)
In brackets after ≈: the same amount, converted by molar mass.

Columns and labels:
A. baumannii (ATCC17978) = experiment: 50% growth inhibitory concentration (IC50) determination assay; type: cell-based; settings: Acinetobacter baumannii, ATCC17978, A. baumannii ATCC17978; Iso-Sensitest broth; 0.098 = detection limit
Procedure, shortened: (§1)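 Broth microdilution in Iso-Sensitest medium, ~5×10^5 CFU/mL inoculum, compound 50–0.097 μM final (two-fold series), 35±2° C; OD600 read every 20 min over 16 h.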

[1] = test system: K. pneumoniae (ATCC10031); experiment: as above; type: cell-based; settings: Klebsiella pneumoniae, Iso-Sensitest broth, 0.098 = detection limit
Procedure, shortened: as §1

S. aureus (ATCC29213) = experiment: as above; type: cell-based; settings: Staphylococcus aureus, Iso-Sensitest broth, 0.098 = detection limit
Procedure, shortened: as §1

[2] = Lyophilisation solubility assay (LYSA); type: physicochemical; settings: 0.05 M phosphate buffer, HPLC-UV; for solubility thermodynamic: phosphate buffer, pH 6.5, aqueous buffer, thermodynamic from solid
Protocol: Lyophilisation Solubility Assay (LYSA):
The solubility of compounds of present invention was assessed by LYSA assay. Samples were prepared in duplicate from 10 mM DMSO stock solutions (20 μL) diluted in 30 μL pure DMSO. After evaporation of DMSO with a centrifugal vacuum evaporator, the residue was dissolved in 0.05 M phosphate buffer (150 μL, pH 6.5), which was stirred for one hour and shook for two hours. After one night, the solution was filtered using a microtiter filter plate. Then the filtrate and its 1/10 dilution were analyzed by HPLC-UV.

| IC50 (A. baumannii (ATCC17978)) [µM] | IC50 [1] [µM] | IC50 (S. aureus (ATCC29213)) [µM] | solubility thermodynamic [2] [µg/mL] | Lysa ([2]; pH 6.5) [µg/mL] | SMILES |
| --- | --- | --- | --- | --- | --- |
| 0.131 | < 0.098 | < 0.098 | 43 (≈ 76.6 µM) |  | CNc1cc(F)c(F)c2c1[nH]c1ncc(-c3cnc4c(c3)c(=O)c(C(=O)O)cn4C)c(N3C[C@H](C)[C@@H](N(C)C)C3)c12 [Example 1.160] |
| 0.729 | < 0.098 | 0.199 | 222 (≈ 407 µM) |  | CNc1cc(F)c(F)c2c1[nH]c1ncc(-c3cnc4c(c3)c(=O)c(C(=O)O)cn4C)c(N3CC[C@@H]4C3CN4C)c12 (stereo partly drawn) [Example 1.248] |
|  |  |  | 180 (≈ 322 µM) |  | CNc1cc(F)c(F)c2c1[nH]c1ncc(-c3cnc4c(c3)c(=O)c(C(=O)O)cn4C)c(N3CC[C@@H]4CN(C)C[C@@H]43)c12 [Example 3.03B] |
| 0.169 | < 0.098 | < 0.098 | 37 (≈ 64.1 µM) |  | CNc1cc(F)c(F)c2c1[nH]c1ncc(-c3cnc4c(c3)c(=O)c(C(=O)O)cn4C)c(N3CCC4(F)CN(C)CC34)c12 (stereo not drawn) [Example 1.120] |
| 0.074 | < 0.098 | < 0.098 | 151 (≈ 255 µM) |  | CNc1cc(F)c(F)c2c1[nH]c1ncc(-c3cnc4c(c3)c(=O)c(C(=O)O)cn4C)c(N3CCC4(CF)CN(C)CC34)c12 (stereo not drawn) [Example 1.124] |
| 0.215 | < 0.098 | < 0.098 | 56 (≈ 94.7 µM) |  | CNc1cc(F)c(F)c2c1[nH]c1ncc(-c3cnc4c(c3)c(=O)c(C(=O)O)cn4C)c(N3CCC(N(C)CCOC)C3)c12 (stereo not drawn) [Example 1.198] |
| 0.157 | < 0.098 | < 0.098 | 138 (≈ 234 µM) |  | CCNn1cc(C(=O)O)c(=O)c2cc(-c3cnc4[nH]c5c(NC)cc(F)c(F)c5c4c3N3CC[C@H]4CN(C)CC43)cnc21 (stereo partly drawn) [Example 1.291] |
| 0.13 | < 0.098 | < 0.098 | 99 (≈ 176 µM) |  | CNc1cc(F)c(F)c2c1[nH]c1ncc(-c3cnc4c(c3)c(=O)c(C(=O)O)cn4C)c(N3CC[C@@H](CN(C)C)C3)c12 [Example 1.255] |
| 0.079 | < 0.098 | < 0.098 | 262 (≈ 432 µM) |  | CNc1cc(F)c(F)c2c1[nH]c1ncc(-c3cnc4c(c3)c(=O)c(C(=O)O)cn4NC)c(N3CCC4(CF)CN(C)CC34)c12 (stereo not drawn) [Example 1.125] |
|  |  |  | 174 (≈ 310 µM) |  | CNc1cc(F)c(F)c2c1[nH]c1ncc(-c3cnc4c(c3)c(=O)c(C(=O)O)cn4N)c(N3CC[C@H]4CN(C)CC43)c12 (stereo partly drawn) [Example 5.02] |
| 0.141 |  |  | 79 (≈ 141 µM) |  | CNc1cc(F)c(F)c2c1[nH]c1ncc(-c3cnc4c(c3)c(=O)c(C(=O)O)cn4C)c(N3CCN4CCC[C@@H]4C3)c12 [Example 1.220] |
| 0.23 |  |  |  | 49 | CNc1cc(F)c(F)c2c1[nH]c1ncc(-c3cnc4c(c3)c(=O)c(C(=O)O)cn4C)c(N3C[C@H](OC)[C@@H](N(C)C)C3)c12 [Example 1.158] |
| 0.267 |  |  | 73 (≈ 130 µM) |  | CNc1cc(F)c(F)c2c1[nH]c1ncc(-c3cnc4c(c3)c(=O)c(C(=O)O)cn4C)c(N3CCN4CCC[C@H]4C3)c12 [Example 1.219] |
|  |  |  | 55 (≈ 93.1 µM) |  | CNc1cc(F)c(F)c2c1[nH]c1ncc(-c3cnc4c(c3)c(=O)c(C(=O)O)cn4NC)c(N3CC4OCCN(C)C4C3)c12 (stereo not drawn) [Example 1.236] |
| 0.291 | 0.111 | < 0.098 |  |  | CNc1cc(F)c(F)c2c1[nH]c1ncc(-c3cnc4c(c3)c(=O)c(C(=O)O)cn4C)c(N3CCC[C@H]3CO)c12 [Example 1.77] |
| 0.16 | < 0.098 | < 0.098 |  |  | CNc1cc(F)c(F)c2c1[nH]c1ncc(-c3cnc4c(c3)c(=O)c(C(=O)O)cn4NC)c(N3C[C@@H]4OCCN(C)[C@@H]4C3)c12 [Example 3.13B] |
| 0.132 | < 0.098 | < 0.098 |  |  | CNc1cc(F)c(F)c2c1[nH]c1ncc(-c3cnc4c(c3)c(=O)c(C(=O)O)cn4C3CCN(C)C3)c(N(C)C)c12 (stereo not drawn) [Example 1.130] |
| 0.3 | < 0.098 | 0.169 |  |  | CCN1CCN(c2c(-c3cnc4c(c3)c(=O)c(C(=O)O)cn4C)cnc3[nH]c4c(NC)cc(F)c(F)c4c23)CC1 [Example 1.233] |
|  |  |  | 254 (≈ 432 µM) |  | CNc1cc(F)c(F)c2c1[nH]c1ncc(-c3cnc4c(c3)c(=O)c(C(=O)O)cn4NC)c(N3CCC4CN(C)CCC43)c12 (stereo not drawn) [Example 1.244] |

The next lines start with the compound.

| SMILES | IC50 (A. baumannii (ATCC17978)) [µM] | IC50 [1] [µM] | IC50 (S. aureus (ATCC29213)) [µM] | solubility thermodynamic [2] [µg/mL] | Lysa ([2]; pH 6.5) [µg/mL] |
| --- | --- | --- | --- | --- | --- |
| CNc1cc(F)cc2c1[nH]c1ncc(-c3cnc4c(c3)c(=O)c(C(=O)O)cn4C)c(N3CCC4(C)CN(C)CC34)c12 (stereo not drawn) [Example 1.272] | 0.112 | < 0.098 | < 0.098 | > 632 |  |
| CNc1cc(F)cc2c1[nH]c1ncc(-c3cnc4c(c3)c(=O)c(C(=O)O)cn4C)c(N3CC4[C@H](CCN4C)C3)c12 (stereo partly drawn) [Example 1.209] | 0.076 | < 0.098 | < 0.098 | 63 (≈ 116 µM) |  |
| CNc1cc(F)cc2c1[nH]c1ncc(-c3cnc4c(c3)c(=O)c(C(=O)O)cn4C)c(N3CC[C@H](N(C)C)C3)c12 [Example 1.253] | 0.092 | < 0.098 | < 0.098 | 209 (≈ 395 µM) |  |
| CCN1CCCC1Cn1cc(C(=O)O)c(=O)c2cc(-c3cnc4[nH]c5c(NC)cc(F)c(F)c5c4c3N(C)C)cnc21 (stereo not drawn) [Example 1.04] | 0.935 | 0.101 | < 0.098 | 32 (≈ 55.6 µM) |  |
| CNc1cc(F)c(F)c2c1[nH]c1ncc(-c3cnc4c(c3)c(=O)c(C(=O)O)cn4C)c(N3CC4(CC4)C[C@H]3CN(C)C)c12 [Example 1.157] | 0.299 | < 0.098 | < 0.098 | 42 (≈ 71.5 µM) |  |
| CNc1cc(F)c(F)c2c1[nH]c1ncc(-c3cnc4c(c3)c(=O)c(C(=O)O)cn4C)c(N3CCC[C@@H]3CN(C)C)c12 [Example 1.13] |  |  |  | 389 (≈ 693 µM) |  |
| CNc1c(F)c(F)cc2c1[nH]c1ncc(-c3cnc4c(c3)c(=O)c(C(=O)O)cn4C)c(N3CC[C@H]4CN(C)CC43)c12 (stereo partly drawn) [Example 1.103] | 0.13 |  |  | 11 (≈ 19.7 µM) |  |
| CNc1cc(F)cc2c1[nH]c1ncc(-c3cnc4c(c3)c(=O)c(C(=O)O)cn4N)c(N3CC[C@H]4CN(C)CC43)c12 (stereo partly drawn) [Example 5.05] |  |  |  | 250 (≈ 461 µM) |  |
| CNc1cc(F)c(F)c2c1[nH]c1ncc(-c3cnc4c(c3)c(=O)c(C(=O)O)cn4C3CCN(C)C3)c(N3CCC(F)(F)C3)c12 (stereo not drawn) [Example 2.03] | 0.562 | < 0.098 | < 0.098 |  |  |
| CCC(Cn1cc(C(=O)O)c(=O)c2cc(-c3cnc4[nH]c5c(NC)cc(F)c(F)c5c4c3N3CCOCC3)cnc21)N(C)C (stereo not drawn) [Example 1.79] | 0.173 | < 0.098 | < 0.098 |  |  |
| CNc1cc(Cl)cc2c1[nH]c1ncc(-c3cnc4c(c3)c(=O)c(C(=O)O)cn4C)c(N3C[C@H]4CCN(C)[C@H]4C3)c12 [Example 3.15A] | 0.208 | < 0.098 | < 0.098 |  |  |
| CNc1cc(F)c(F)c2c1[nH]c1ncc(-c3cnc4c(c3)c(=O)c(C(=O)O)cn4C(C)CCO)c(N(C)C)c12 (stereo not drawn) [Example 1.145] | 0.341 | 0.202 | < 0.098 |  |  |
| CNc1cc(F)c(F)c2c1[nH]c1ncc(-c3cnc4c(c3)c(=O)c(C(=O)O)cn4C)c(N(C)C)c12 [Example 1.01, 6-[4-(Dimethylamino)-5,6-difluoro-8-(methylamino)-9H-pyrido[2,3-b]indol-3-yl]-1-methyl-4-oxo-1,8-naphthyridine-3-carboxylic acid] | < 0.098 | < 0.098 | < 0.098 |  |  |
